Patent publication US7563862B2, “Neural regeneration peptides and methods for their use in treatment of brain damage” (Neuren Pharmaceuticals Limited, priority 2001, dated 2009)
Ends that are not written are not given here.

Assays:
MEB-5 cells = assay: haptotactic migration assay, MEB-5 cells; type: cell-based, mouse; conditions: 1 ng/ml coating, 200,000 cells
Description: NRPs were tested for migration-inducing/chemoattractive activity on mouse neural stem cells, EGF-dependent immortalized mouse neural stem cell line MEB5 and wild-type PC-12 cells in a haptotactic migration assay as described below.
Initial NRP Coating. Control wells of Transwell plates (Coming) with 12 μm pore size were coated in 1.5 ml of the BSA/PBS vehicle. Remaining plates were coated using various concentrations of NRPs ranging between 1-100 ng/ml (prepared in PBS containing 10 ug/ml BSA). The plates were then incubated at 37° C. for 1 hr to coat. Wells were then rinsed 2× with 1 ml sterile PBS.
Laminin ([…]) for MEB-5 cells, PDL (50 μg/ml)+Matrigel for mouse primary stem cells and fibronectin (25 ug/ml)+matrigel for PC-12 cells were used as extracellular matrix (ECM) coating for the cells. All ECM compounds were diluted in PBS. 1.5 ml of the ECM per well was incubated for 2 hrs at room temperature. The wells were then rinsed once with Iml serum-free media (e.g. NB/B27) followed by 1 ml PBS wash.
A 5 ug/mL PDL/PLL mixture (in PBS) was used to coat inserts. Subsequently the inserts were rinsed with MilliQ water. […]

[1] = test system: un-injured cerebellar microexplants; assay: proliferation induction without injury, cerebellar microexplants; type: cell-based, rat
Description: FIG. 17 depicts results of proliferation induction without injury using NRP-2 segment KG (SEQ ID NO: 18) and rat NRP-1 (SEQ ID NO: 2). Peptides were administered 24hrs after start of cultivation to decrease interference in the assay due to initial neuronal survival or adherence effects. The cultures were fixed after 3 days in vitro. There was neuronal proliferation seen at 300 μM of NRP-2 segment KG (SEQ ID NO: 18).
Within the applied proliferation assay rat NRP-1 (SEQ ID NO:2) and NRP-2KS (SEQ ID NO:23) were tested for neuronal proliferation inducing activity (see FIG. 19). In order to discriminate proliferation from increased survival and cellular adhesion properties, NRP-2 KS (SEQ ID NO:23) was administered 24 hrs after the start of cultivation. Rat NRP-1(SEQ ID NO:2) had specific effects on neuronal proliferation, (see FIGS. 7, 9 and 10). Neuronal proliferation induced by NRP-2KS (SEQ ID NO:23) occurred within a range of about 0.3-30 nM using un-injured cerebellar microexplants (verified by counting cells displaying neurite outgrowth).

neural stem cells = assay: neural stem cell differentiation assay, neuronal differentiation and axonal outgrowth; type: cell-based, mouse
Description: Neural stem cells were derived from E15 C3H mice forebrain and cultured as neurospheres in the presence of 20 ng/ml EGF and 10 ng/ml bFGF as described in Gritti et al. (2001). Briefly, timed pregnant mice were sacrificed and the embryos removed. Under sterile conditions the brains were removed and the forebrains dissected. The tissue was dissociated by trituration and pelleted by 75 g centrifugation for 10 minutes and the cells seeded in non-coated tissue culture flasks in NSA medium with growth factors. For passaging neurospheres were triturated and seeded as single cells.
Upon reaching a sufficient size, neurospheres were dissociated by trituration and plated at a density of 200,000 cells per well on laminin-coated 13 mm diameter coverslips that had been placed in Nunc 24 well plates. The plating medium was a 1:1 mixture of DMEM/F12 supplemented with N2 and Neurobasal supplemented with B27 and 2 mM glutamine. To enhance survival after plating the medium contained 2 ng/ml bFGF. After 24 h the medium was replaced with a neuronal differentiation-promoting medium (1:3 mixture of DMEM/F12 supplemented with N2 and Neurobasal supplemented with B27 and 2 mM glutamine) and except for the controls the test compound or IGF-1 was added simultaneously. The medium with fresh compound was exchanged every other day. Seven days after plating the differentiating cells were incubated for 20 minutes in differentiation medium containing 100 ng/ml Syto21 to label the nuclei of viable cells. Subsequently, they were fixed with 4% paraformaldehyde and immunostained with a mouse anti-βIII tubulin antibody and a goat anti-mouse Cy3-coupled secondary antibody.
After staining the coverslips were removed from the tissue culture plate and mounted on […], using Immunofluore fluorescent mounting medium. To analyse the percentage of neurons of total cells, with a Zeiss axiophot microscope, equipped with Axoivision software, at 20× magnification images of two random fields per well were taken in the red (tubulin stained neurons) and green (Syto21 stained nuclei) fluorescent channel. Neurons and nuclei per field were counted and the neuronal percentage of total cell number determined.

[2] = test system: OTCs of rat embryonic forebrain; assay: embryonic forebrain OTC migration assay (medial ganglionic eminence to cortical anlage); type: cell-based
Description: OTCs of rat embryonic forebrain were prepared as described. Briefly, pregnant rats at E17 gestation were sacrificed, the fetuses rapidly removed. Coronal slices of the forebrain were cut at 400 μm thickness and placed onto millicell PICM ORG50 membranes (Millipore) in 3 cm Petri dishes containing 1 ml of DMEMI/F12, 6.5 mg/ml glucose, 0.1 mM glutamine and 10% FCS for 34 hrs. Afterwards the medium was exchanged to 1 ml Neurobasal/B27, 6.5 mg/ml glucose, 0.1 mM glutamine, to which 10 μl PBS, NRP, or SDF-1 were added for the indicated concentrations and a small DiI (1,1′-dioctodecycyl-3,3,3′3-tetramethylindocarbocyanine) crystal of uniform size was placed in the medial ganglionic eminence (n=10-15) under a stereomicroscope. After 24 hrs cultivation the total number or migrated neurons dispersed in the ganglionic eminence and cortex were counted under an inverted fluorescent microscope.

[3] = test system: human olfactory ensheating glial (OEG) cells; assay: proliferation of olfactory ensheating glial (OEG) cells; type: cell-based; conditions: over 72 hours
Description: To determine whether NRPs might be useful for remyelinating neural tissues, we carried out studies using human olfactory ensheating glial (OEG) cells. OEG cells are being evaluated as a source population of cells for repopulating damaged neural tissue, such as that of the spinal cord. OEG cells were obtained from scrapings of human nasal mucosa using methods that are known in the art. Cells were grown in medium under control conditions and in the presence of NRP-7 SW (SEQ ID NO:24).

For “KDPEARRAPGSLHPCLAAS-NH2 [NRP-2 segment KS, 19-mer fragment of NRP-2]”, the “more MEB-5 cells migrated compared with BSA-vehicle” value (MEB-5 cells) was 109%, the “increased neuronal cell proliferation, greater than vehicle-treated controls” value ([1]; 300 μM) was 117.5% and the “concentration range of induced neuronal proliferation” value ([1]; peptide 24 hrs after start of cultivation) was 0.3 to 30 nM. The “maximum increase in beta-III-tubulin-positive neurons” value (neural stem cells; 1 0nM, 7 days differentiation) was 2 fold and the “proliferation rate during differentiation of NSC” value (neural stem cells; together with BrdU for 24 hrs) was “an increase in the proliferation rate”.
In the case of “NRP-1: rat 16 amino acid neural regeneration peptide purified from hippocampal OTC supernatant, Tyr Asp Pro Glu ... Cys His-NH2 (YDPEAASAPGSGNPCH-NH2)”, the “concentration of greatest effect on neuronal proliferation” value [1] is reported as 3 nM and the “up regulation of neuronal cell proliferation” value ([1]; 3 nM) is reported as 81.2%.
“SEPEARRAPGRKGGVVCASLAADW-NH2 [NRP-7 segment SW, 24-mer form of mouse NRP-7]” was tested, and the “increase in number of migrating neuronal precursor cells” value [2] was 5 fold, the optimum dose [2] was 1 nM and the “maximum increase in beta-III-tubulin-positive neurons” value (neural stem cells; 10 pM, 7 days differentiation) was 2 fold. For the same substance, the “axonal outgrowth-promoting activity” value (neural stem cells; 7 days differentiation) was “maximum activity for an increase in axonal length growth lies in the upper nanomolar range” and the “rate of growth of OEG cells” value [3] was “about 50%”.
